Experiment: gradient 5% acetonitrile 3 min, to 50% in 2 min, to 85% in 15 min, held 3 min, 100 µL/min
Conditions: column: Zorbax Extend-C18 2.1 x 50 mm; eluents: water / acetonitrile, 0.1% formic acid
Summary of the method: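 Mixtures of ~100 pure standards were chromatographed on a Zorbax Extend-C18 column (2.1 × 50 mm, 1.8 μm) at 100 μL/min using water and acetonitrile, each with 0.1% formic acid. Detection used a quadrupole time-of-flight mass spectrometer in positive and negative ionization mode, and data collection spanned 3 months. Retention time was obtained from adduct peaks picked computationally and each checked manually.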

Compound | RP-LC retention time [s]
COC(=O)c1ccccc1NC(=O)c1ccc(F)cc1 | 1060
O=C(CC1CCCC1)N1CCCC1c1nc(C2CCOCC2)no1 (stereo not drawn) | 780
CCOC(=O)Cc1ccc(NC(=O)N2CCc3nc[nH]c3C2)cc1 | 588
Cc1cc(OCC(=O)Nc2ccc(F)c(Cl)c2)nc(N2CCN(c3ccccc3)CC2)n1 | 956
CC1CCCN(c2nc(=O)n(CC(=O)Nc3ccc4c(c3)OCCO4)c3ccccc23)C1 (stereo not drawn) | 780
O=C(NCCc1noc(C2CC2)n1)c1ccco1 | 664
CCC1Oc2ccc(S(=O)(=O)N3CCC(C(=O)Nc4ccc(C)c(C)c4)CC3)cc2NC1=O (stereo not drawn) | 930
COc1cccc(-n2cc(C(=O)OCc3cc(=O)n4ccccc4n3)c3ccccc3c2=O)c1 | 866
O=C(c1ccc(Br)o1)N1CCC2(CC1)OCCS2 | 771
COCCNC(=O)CN1C(=O)C2CCCCN2c2ccc(C(=O)N3CCCC3)cc21 (stereo not drawn) | 653
O=C(NC1CC1)C1CCN(c2nc3ccsc3c(=O)n2Cc2ccc(F)cc2)CC1 | 768
COc1ccc(C(O)CN2CCN(c3ccccc3C)CC2)cc1 (stereo not drawn) | 686
Cc1ccc(S(=O)(=O)N2CCC(c3nc(C(=O)N(C)C)c(C)o3)CC2)cc1 | 818
O=C(Nc1ccc(F)cc1F)N1CCC(CCNC(=O)C2(c3ccccc3)CC2)CC1 | 886
CC(=O)Nc1ccc(S(=O)(=O)N2CCC(CN3CCCCCC3)CC2)cc1 | 588
COc1ccc(N2CCN(C(=O)c3cn(-c4cc(N5CCCCC5)ncn4)cn3)CC2)cc1 | 817
CCOC(=O)C1=C(C)N(CC(=O)NC2CCCC2)c2ncnn2C1c1ccc(C)cc1 (stereo not drawn) | 897
Cn1nc(C(=O)N2CCC(Oc3ccc(-c4noc(C5CC5)n4)cc3)C2)c2ccccc21 (stereo not drawn) | 1050
Cc1nn(CC(=O)NC(C)(C)C)c(=O)c2c(C)n(-c3ccccc3)nc12 | 768
CC(C)n1ccc(-c2nnc(NC(=O)C3CCCN(S(C)(=O)=O)C3)o2)n1 (stereo not drawn) | 609
CCCN1CCN(C(=O)c2cnn(-c3cc(-c4nc(C(C)(C)C)no4)ccn3)c2C)CC1 | 715
O=C(NC1CCN(c2cc(-c3cccs3)[nH]n2)C1)c1ccc(Br)cc1 (stereo not drawn) | 782

Compound | RP-LC retention time [s]
CCN1CCC2(CC1)OC(=O)C(C)=C2C(=O)NCCCN1CCC(Cc2ccccc2)CC1 | 583
Cc1cc(C)n(CCNC(=O)c2ccc3nsnc3c2)n1 | 638
COC(=O)CSc1nnc2c(S(=O)(=O)N3CCN(c4ccc(F)cc4)CC3)cccn12 | 825
CN1C(=O)c2cccnc2Sc2cc(NC(=O)c3cc(Cl)ccc3F)ccc21 | 859
COc1ccc(-c2c(C(=O)NCc3cccs3)nc3ccccn23)cc1 | 828
COc1ccc(NC(=O)CSc2nccc(N3CCN(c4cc(C)ccc4C)CC3)n2)cc1Cl | 936
Cc1cccc(NC(=O)c2cn(CC(=O)NC3CCCC3)c3nc(C)ccc3c2=O)c1 | 996
Cc1cc(Cl)cc2sc(N(Cc3ccccn3)C(=O)CN(C)S(C)(=O)=O)nc12 | 1080
Cc1nc(-c2noc(-c3ccccc3)n2)cn1CC(=O)N1CCc2ccccc21 | 860
CCCCN1CCN(C(=O)c2nnc(-c3ccc(S(=O)(=O)N(C)C)cc3)o2)CC1 | 620
O=S(=O)(Cc1ccccc1F)N1CCc2nnc(C3CC3)n2CC1 | 626
Cc1cccc(Nc2nnc(CC(=O)Nc3cc(F)ccc3Cl)s2)c1 | 872
CN(C)C(=O)c1ccc2c(c1)N(CC(=O)Nc1ccc(Cl)cc1)C(=O)CS2 | 753
CSc1ccc(CNC(=O)C2CCCN(c3nccn4nc(-c5ccc(F)cc5)cc34)C2)cc1 (stereo not drawn) | 951
CC(C)(C)C(O)CCNC(=O)NCc1ccc(F)cc1 (stereo not drawn) | 705
NC(=O)c1cc(N2CC2)c([N+](=O)[O-])cc1[N+](=O)[O-] | 650
O=C(CCn1c(=O)oc2ccccc21)N1CC(F)(F)C[C@H]1COc1ccccc1 | 1000
CCCC(=O)NC1CCN(c2ccc(C)cc2)C1=O (stereo not drawn) | 714
O=C(NC1CC1)c1nc2ccccn2c1-c1ccc(F)cc1 | 709
O=C(Nc1cnc(N2CCN(CCOc3ccc(Cl)cc3)CC2)c(C(=O)O)c1)c1cccs1 | 683
CC(C(=O)Nc1nc(-c2ccccc2)cs1)N1C(=O)C2C3C=CC(C3)C2C1=O (stereo not drawn) | 955
Cc1ccc(NC(=O)Nc2ccc3nnc(C)n3c2)cc1 | 673

Compound | RP-LC retention time [s]
Cc1nnc(N2CCCC(C(=O)NCCC3=CCCCC3)C2)c2nn(-c3ccccc3)c(C)c12 (stereo not drawn) | 803
COCCCNC(=O)C1CCN(S(C)(=O)=O)c2cc(Cl)ccc2O1 (stereo not drawn) | 730
O=C(Cn1nc(N2CCSCC2)c2ccccc2c1=O)Nc1ccc2c(c1)OCCO2 | 818
Cc1cccc(N2CCN(C(=O)C3CCN(C(=O)C4Sc5ccccc5NC4=O)CC3)CC2C)c1 (stereo not drawn) | 725
O=C(c1ccco1)N1CCN(S(=O)(=O)c2ccc(-c3cc(C(F)(F)F)on3)o2)CC1 | 951
Cc1cc(C(=O)NCCN2CCN(c3cccc(C)c3C)CC2)n(-c2ccccc2)n1 | 705
O=C(c1ccc(C(F)(F)F)s1)N1CCN(c2nc(CN3CCCCC3)cs2)CC1 | 703
O=C(CC1CCCCN1S(=O)(=O)c1ccc(Cl)cc1)NCc1ccco1 (stereo not drawn) | 852
CCCN(C)c1ccc2ncc(=O)n(C)c2n1 | 923
Cc1cc2c(=O)n(CC(=O)Nc3cccc(Cl)c3C)ccc2s1 | 819
O=C(Nc1ccc2c(c1)N(C(=O)c1cccs1)CC2)c1ccc2c(c1)OCO2 | 843
Cc1ccc(C)c(NC(=O)N2CCC(N3CCN(Cc4ccc(F)cc4)C(=O)C3=O)CC2)c1 | 754
CC(C)Cn1cc(CCNC(=O)Nc2ccc(Br)cc2F)c2cccnc21 | 975
CCn1c(C(=O)Nc2cccc(C)n2)cc2c(=O)oc3ccccc3c21 | 891
O=C(NCC1CC1)c1ccc2nc(-c3ccccc3)cn2c1 | 629
O=C(NCc1ccccc1Cl)C1CCCN(S(=O)(=O)c2c[nH]c(C(=O)N3CCCC3)c2)C1 (stereo not drawn) | 790
CCn1c(=O)c2ccccc2n(Cc2nc(-c3ccc(F)cc3)no2)c1=O | 1010
COC(=O)c1ccccc1NC(=O)CN1C(=O)CN=C(c2ccccc2)c2ccccc21 | 958
O=C(NCc1ccc2c(c1)OCO2)C(=O)NCC1CCN(S(=O)(=O)C2CC2)CC1 | 711
Cc1ccccc1C(=O)Nc1ccc(C(=O)N2CCCC(N(C)C)c3ccccc32)cc1 (stereo not drawn) | 712
Cc1ccc(S(=O)(=O)N2CCC3(CCN(c4cccnc4)C3)C2)c(C)c1 (stereo not drawn) | 684
COc1ccc(-c2nnc(N3CCC(C(=O)NCc4cc(F)cc(F)c4)CC3)o2)cc1 | 899

Compound | RP-LC retention time [s]
O=c1n(Cc2ccccc2Cl)nc2ccc(S(=O)(=O)N3CCCCCC3)cn12 | 1000
CCCCNc1cc(Cl)nc(N)n1 | 690
O=C(Nc1nc2c(s1)CN(C(=O)Nc1ccc(Cl)c(Cl)c1)CC2)c1cnccn1 | 811
CCNC(=O)Cc1nnc(-c2ccc(C)cc2)o1 | 664
O=C(Nc1nc2ccc(Cl)cc2s1)C1CCN(C(=O)C2Sc3ccccc3NC2=O)CC1 (stereo not drawn) | 903
COc1ccc(C2(C(=O)N3CCn4ccnc4C3C(C)C)CC2)cc1 (stereo not drawn) | 568
Cc1ccc(CNC(=O)C2CCCN(c3nnc(C)c4c(C)n(-c5ccccc5)nc34)C2)cc1 (stereo not drawn) | 726
Cc1ccc(F)c(NC(=O)c2cnc(-c3ccc(F)cc3)nc2-c2ccncc2)c1 | 954
O=C(NCc1ccco1)C1CCN(Cc2cc3ccccc3n2Cc2ccc(Cl)cc2)CC1 | 783
O=C(COc1ccc(F)cc1)NCC1(O)CCCC1 | 667
Cc1nn(-c2ccccc2)c(C)c1S(=O)(=O)N1CCC(C(=O)NC2CCCc3ccccc32)CC1 (stereo not drawn) | 1010
O=C(Nc1ccc(N2CCN(C3CCCC3)C2=O)nc1)c1ccccc1 | 817
Cc1ccc(C)c(S(=O)(=O)N2CCC(c3noc(-c4ccccc4C)n3)CC2)c1 | 1270
O=C(O)c1ccc(Cn2cnc3ccccc32)o1 | 512
Cn1nnc2cc(C(=O)N3CCC(C(=O)NC4CCCc5ccccc54)CC3)ccc21 (stereo not drawn) | 728
O=C(N[C@H]1C[C@@H]2C[C@H]1CN2C(=O)Nc1ccc2c(c1)OCCO2)c1ccccc1 | 937
Cc1cc(C)c(NC(=O)C2CCN(S(=O)(=O)c3c(C)nn(-c4ccccc4)c3C)CC2)c(C)c1 | 1010
O=C(Nc1cccc(Cl)c1)C1CCN(C(=O)C2Sc3ccccc3NC2=O)CC1 (stereo not drawn) | 837
CC1Cc2ccccc2N1C(=O)Cc1cc(-c2ccc(F)cc2)on1 (stereo not drawn) | 1000
COC(=O)C1=CN(C2CC2)c2cc(N3CCOCC3)c(F)cc2S1(=O)=O | 736
CCOc1ccc(N2C=C(C(=O)N3CCOCC3)S(=O)(=O)c3ccc(Cl)cc32)cc1 | 893
CC1=NS(=O)(=O)N(C)C=C1C(=O)OCc1cc(F)cc(F)c1 | 934

From the METLIN SMRT retention time set (Domingo-Almenara et al. 2019)
